Results taken from PubChem BioAssay (NCI).
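Exposure lasted 48 hours, with cells grown in 96-well plates and compounds tested at five concentrations. At the GI50, growth is halved. At the TGI there is no net growth.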

Tests used:
Experiment in all cases: NCI-60 cell line screen, 48 h
MALME-3M melanoma = system: MALME-3M melanoma
MOLT-4 leukemia = system: MOLT-4 leukemia
HOP-92 NSCLC = system: HOP-92 NSCLC
A498 renal = system: A498 renal
SF-268 CNS = system: SF-268 CNS
A549 NSCLC = system: A549 NSCLC
MDA-MB-435 = system: MDA-MB-435
U251 CNS = system: U251 CNS
HL-60(TB) leukemia = system: HL-60(TB) leukemia
HCT-15 colon = system: HCT-15 colon
SW-620 colon = system: SW-620 colon
BT-549 breast = system: BT-549 breast
SK-MEL-2 melanoma = system: SK-MEL-2 melanoma
EKVX NSCLC = system: EKVX NSCLC
SK-OV-3 ovarian = system: SK-OV-3 ovarian
NCI-H522 lung = system: NCI-H522 lung
CAKI-1 renal = system: CAKI-1 renal
SNB-75 CNS = system: SNB-75 CNS
HS 578T breast = system: HS 578T breast
RXF 393 renal = system: RXF 393 renal
M14 melanoma = system: M14 melanoma
NCI/ADR-RES ovarian = system: NCI/ADR-RES ovarian
ACHN renal = system: ACHN renal
COLO 205 colon = system: COLO 205 colon
SN12C renal = system: SN12C renal
DU-145 prostate = system: DU-145 prostate
OVCAR-8 ovarian = system: OVCAR-8 ovarian
UO-31 renal = system: UO-31 renal
MCF7 breast = system: MCF7 breast
OVCAR-4 ovarian = system: OVCAR-4 ovarian
NCI-H23 lung = system: NCI-H23 lung
UACC-257 melanoma = system: UACC-257 melanoma
OVCAR-5 ovarian = system: OVCAR-5 ovarian
SNB-19 CNS = system: SNB-19 CNS
HCC-2998 colon = system: HCC-2998 colon
KM12 colon = system: KM12 colon
IGROV1 ovarian = system: IGROV1 ovarian
TK-10 renal = system: TK-10 renal
PC-3 prostate = system: PC-3 prostate
786-0 renal = system: 786-0 renal
NCI-H226 lung = system: NCI-H226 lung
SF-295 CNS = system: SF-295 CNS
CCRF-CEM leukemia = system: CCRF-CEM leukemia
HCT-116 colon = system: HCT-116 colon
SF-539 CNS = system: SF-539 CNS
NCI-H460 lung = system: NCI-H460 lung
MDA-MB-231 breast = system: MDA-MB-231 breast
HOP-62 NSCLC = system: HOP-62 NSCLC
HT29 colon = system: HT29 colon
LOX IMVI melanoma = system: LOX IMVI melanoma
SK-MEL-28 melanoma = system: SK-MEL-28 melanoma
UACC-62 melanoma = system: UACC-62 melanoma
SK-MEL-5 melanoma = system: SK-MEL-5 melanoma
T-47D breast = system: T-47D breast
K-562 leukemia = system: K-562 leukemia
SR leukemia = system: SR leukemia

CCCCCCNC(=O)Oc1ccc(/C(=C(/C)c2ccc(Cl)cc2)c2ccc(OCCN3CCCC3)cc2)cc1
GI50 (MALME-3M melanoma): 1710 nM
TGI (MALME-3M melanoma): 3240 nM
GI50 (MOLT-4 leukemia): 1730 nM
TGI (MOLT-4 leukemia): 3970 nM
GI50 (HOP-92 NSCLC): 1160 nM
TGI (HOP-92 NSCLC): 2420 nM
GI50 (A498 renal): 3930 nM
TGI (A498 renal): 17000 nM
GI50 (SF-268 CNS): 1770 nM
TGI (SF-268 CNS): 3720 nM
GI50 (A549 NSCLC): 1630 nM
TGI (A549 NSCLC): 3070 nM
GI50 (MDA-MB-435): 1790 nM
TGI (MDA-MB-435): 3250 nM
GI50 (U251 CNS): 1540 nM
TGI (U251 CNS): 2930 nM
GI50 (HL-60(TB) leukemia): 1630 nM
TGI (HL-60(TB) leukemia): 3740 nM
GI50 (HCT-15 colon): 1500 nM
TGI (HCT-15 colon): 3000 nM
GI50 (SW-620 colon): 1670 nM
TGI (SW-620 colon): 3130 nM
GI50 (BT-549 breast): 1700 nM
TGI (BT-549 breast): 3200 nM
GI50 (SK-MEL-2 melanoma): 1890 nM
TGI (SK-MEL-2 melanoma): 3510 nM
GI50 (EKVX NSCLC): 2180 nM
TGI (EKVX NSCLC): 6120 nM
GI50 (SK-OV-3 ovarian): 1630 nM
TGI (SK-OV-3 ovarian): 3010 nM
GI50 (NCI-H522 lung): 1780 nM
TGI (NCI-H522 lung): 3370 nM
GI50 (CAKI-1 renal): 1480 nM
TGI (CAKI-1 renal): 2820 nM
GI50 (SNB-75 CNS): 1790 nM
TGI (SNB-75 CNS): 8970 nM
GI50 (HS 578T breast): 1660 nM
TGI (HS 578T breast): 3590 nM
GI50 (RXF 393 renal): 1700 nM
TGI (RXF 393 renal): 3260 nM
GI50 (M14 melanoma): 1720 nM
TGI (M14 melanoma): 3180 nM
GI50 (NCI/ADR-RES ovarian): 1680 nM
TGI (NCI/ADR-RES ovarian): 3300 nM
GI50 (ACHN renal): 1710 nM
TGI (ACHN renal): 3080 nM
GI50 (COLO 205 colon): 1860 nM
TGI (COLO 205 colon): 3360 nM
GI50 (SN12C renal): 1730 nM
TGI (SN12C renal): 3200 nM
GI50 (DU-145 prostate): 1920 nM
TGI (DU-145 prostate): 3460 nM
GI50 (OVCAR-8 ovarian): 1720 nM
TGI (OVCAR-8 ovarian): 3360 nM
GI50 (UO-31 renal): 1240 nM
TGI (UO-31 renal): 2520 nM
GI50 (MCF7 breast): 52.5 nM
TGI (MCF7 breast): 1970 nM
GI50 (OVCAR-4 ovarian): 1840 nM
TGI (OVCAR-4 ovarian): 3750 nM
GI50 (NCI-H23 lung): 1780 nM
TGI (NCI-H23 lung): 3310 nM
GI50 (UACC-257 melanoma): 1740 nM
TGI (UACC-257 melanoma): 3240 nM
GI50 (OVCAR-5 ovarian): 2730 nM
TGI (OVCAR-5 ovarian): 10100 nM
GI50 (SNB-19 CNS): 1850 nM
TGI (SNB-19 CNS): 3590 nM
GI50 (HCC-2998 colon): 1650 nM
TGI (HCC-2998 colon): 3050 nM
GI50 (KM12 colon): 1980 nM
TGI (KM12 colon): 3740 nM
GI50 (IGROV1 ovarian): 1740 nM
TGI (IGROV1 ovarian): 3280 nM
GI50 (TK-10 renal): 1620 nM
TGI (TK-10 renal): 3140 nM
GI50 (PC-3 prostate): 1520 nM
TGI (PC-3 prostate): 2950 nM
GI50 (786-0 renal): 1780 nM
TGI (786-0 renal): 3290 nM
GI50 (NCI-H226 lung): 2020 nM
TGI (NCI-H226 lung): 4470 nM
GI50 (SF-295 CNS): 1730 nM
TGI (SF-295 CNS): 3170 nM
GI50 (CCRF-CEM leukemia): 1780 nM
TGI (CCRF-CEM leukemia): 4980 nM
GI50 (HCT-116 colon): 1510 nM
TGI (HCT-116 colon): 3100 nM
GI50 (SF-539 CNS): 1710 nM
TGI (SF-539 CNS): 3120 nM
GI50 (NCI-H460 lung): 1760 nM
TGI (NCI-H460 lung): 3200 nM
GI50 (MDA-MB-231 breast): 1730 nM
TGI (MDA-MB-231 breast): 3220 nM
GI50 (HOP-62 NSCLC): 1550 nM
TGI (HOP-62 NSCLC): 2950 nM
GI50 (HT29 colon): 1620 nM
TGI (HT29 colon): 3190 nM
GI50 (LOX IMVI melanoma): 1590 nM
TGI (LOX IMVI melanoma): 2950 nM
GI50 (SK-MEL-28 melanoma): 1720 nM
TGI (SK-MEL-28 melanoma): 3160 nM
GI50 (UACC-62 melanoma): 1750 nM
TGI (UACC-62 melanoma): 3220 nM
GI50 (SK-MEL-5 melanoma): 1720 nM
TGI (SK-MEL-5 melanoma): 3150 nM
GI50 (T-47D breast): 1310 nM
TGI (T-47D breast): 2880 nM

CCN(CC)c1ccc2c(c1)Oc1nc(N)c(C#N)c(N)c1C2Sc1ccc(F)cc1 (centres undefined)
GI50 (MALME-3M melanoma): 1670 nM
TGI (MALME-3M melanoma): 3090 nM
GI50 (MOLT-4 leukemia): 315 nM
TGI (MOLT-4 leukemia): > 100000 nM
GI50 (A498 renal): 1930 nM
TGI (A498 renal): 3910 nM
GI50 (SF-268 CNS): 1540 nM
TGI (SF-268 CNS): 2990 nM
GI50 (A549 NSCLC): 1790 nM
TGI (A549 NSCLC): 3340 nM
GI50 (MDA-MB-435): 1330 nM
TGI (MDA-MB-435): 2730 nM
GI50 (U251 CNS): 1230 nM
TGI (U251 CNS): 2560 nM
GI50 (HCT-15 colon): 984 nM
TGI (HCT-15 colon): 2450 nM
GI50 (SW-620 colon): 1080 nM
TGI (SW-620 colon): 2410 nM
GI50 (BT-549 breast): 1070 nM
TGI (BT-549 breast): 2310 nM
GI50 (SK-MEL-2 melanoma): 1690 nM
TGI (SK-MEL-2 melanoma): 3100 nM
GI50 (EKVX NSCLC): 661 nM
TGI (EKVX NSCLC): 2060 nM
GI50 (SK-OV-3 ovarian): 2040 nM
TGI (SK-OV-3 ovarian): 3630 nM
GI50 (NCI-H522 lung): 1800 nM
TGI (NCI-H522 lung): 3310 nM
GI50 (CAKI-1 renal): 1550 nM
TGI (CAKI-1 renal): 2910 nM
GI50 (SNB-75 CNS): 1490 nM
TGI (SNB-75 CNS): 2820 nM
GI50 (HS 578T breast): 1610 nM
TGI (HS 578T breast): 4610 nM
GI50 (RXF 393 renal): 1710 nM
TGI (RXF 393 renal): 3170 nM
GI50 (M14 melanoma): 1490 nM
TGI (M14 melanoma): 3010 nM
GI50 (NCI/ADR-RES ovarian): 2280 nM
TGI (NCI/ADR-RES ovarian): 5880 nM
GI50 (ACHN renal): 1500 nM
TGI (ACHN renal): 2820 nM
GI50 (COLO 205 colon): 1220 nM
TGI (COLO 205 colon): 2670 nM
GI50 (DU-145 prostate): 1650 nM
TGI (DU-145 prostate): 3010 nM
GI50 (OVCAR-8 ovarian): 1600 nM
TGI (OVCAR-8 ovarian): 3020 nM
GI50 (K-562 leukemia): 308 nM
TGI (K-562 leukemia): > 100000 nM
GI50 (UO-31 renal): 1120 nM
TGI (UO-31 renal): 2330 nM
GI50 (MCF7 breast): 1000 nM
TGI (MCF7 breast): 2840 nM
GI50 (SR leukemia): 334 nM
TGI (SR leukemia): > 100000 nM
GI50 (OVCAR-4 ovarian): 1750 nM
TGI (OVCAR-4 ovarian): 3180 nM
GI50 (NCI-H23 lung): 1370 nM
TGI (NCI-H23 lung): 2900 nM
GI50 (UACC-257 melanoma): 1860 nM
TGI (UACC-257 melanoma): 3330 nM
GI50 (OVCAR-5 ovarian): 1380 nM
TGI (OVCAR-5 ovarian): 2780 nM
GI50 (SNB-19 CNS): 1410 nM
TGI (SNB-19 CNS): 2740 nM
GI50 (HCC-2998 colon): 1730 nM
TGI (HCC-2998 colon): 3300 nM
GI50 (KM12 colon): 1210 nM
TGI (KM12 colon): 2490 nM
GI50 (IGROV1 ovarian): 1050 nM
TGI (IGROV1 ovarian): 2380 nM
GI50 (TK-10 renal): 2690 nM
TGI (TK-10 renal): 4210 nM
GI50 (786-0 renal): 1560 nM
TGI (786-0 renal): 3020 nM
GI50 (SF-295 CNS): 1700 nM
TGI (SF-295 CNS): 3160 nM
GI50 (HCT-116 colon): 1140 nM
TGI (HCT-116 colon): 2660 nM
GI50 (SF-539 CNS): 1330 nM
TGI (SF-539 CNS): 2620 nM
GI50 (NCI-H460 lung): 1280 nM
TGI (NCI-H460 lung): 2750 nM
GI50 (HOP-62 NSCLC): 1830 nM
TGI (HOP-62 NSCLC): 3420 nM
GI50 (HT29 colon): 1530 nM
TGI (HT29 colon): 3320 nM
GI50 (LOX IMVI melanoma): 433 nM
TGI (LOX IMVI melanoma): 1530 nM
GI50 (SK-MEL-28 melanoma): 1520 nM
TGI (SK-MEL-28 melanoma): 2890 nM
GI50 (UACC-62 melanoma): 1630 nM
TGI (UACC-62 melanoma): 3100 nM
GI50 (SK-MEL-5 melanoma): 1760 nM
TGI (SK-MEL-5 melanoma): 3170 nM
